According to PubChem BioAssay AID1259407 (Chemical Carcinogenesis Research Information System (CCRIS), 2018):
The source made the active and inactive calls. How the calls were made is not given here.

System: CCRIS mutagenicity, Ames/micronucleus/aberration tests
Experiment: CCRIS mutagenicity studies
[1] = Test System: AMES SALMONELLA TYPHIMURIUM, Strain/Indicator: TA98, Metabolic Activation: HAMSTER, LIVER, S-9, AROCLOR 1254 (30%), Method: PREINCUBATION
[2] = Test System: AMES SALMONELLA TYPHIMURIUM, Strain/Indicator: TA98, Metabolic Activation: NONE, Method: PREINCUBATION
[3] = Test System: AMES SALMONELLA TYPHIMURIUM, Strain/Indicator: TA98, Metabolic Activation: RAT, LIVER, S-9, AROCLOR 1254 (30%), Method: PREINCUBATION
[4] = Test System: AMES SALMONELLA TYPHIMURIUM, Strain/Indicator: TA100, Metabolic Activation: HAMSTER, LIVER, S-9, AROCLOR 1254 (30%), Method: PREINCUBATION
[5] = Test System: AMES SALMONELLA TYPHIMURIUM, Strain/Indicator: TA100, Metabolic Activation: NONE, Method: PREINCUBATION
[6] = Test System: AMES SALMONELLA TYPHIMURIUM, Strain/Indicator: TA100, Metabolic Activation: RAT, LIVER, S-9, AROCLOR 1254 (30%), Method: PREINCUBATION
[7] = Test System: AMES SALMONELLA TYPHIMURIUM, Strain/Indicator: TA1535, Metabolic Activation: NONE, Method: PREINCUBATION

Structure (SMILES): Nc1ccccc1C(=O)OC1CCCCC1
- mutagenic call (Test System: AMES SALMONELLA TYPHIMURIUM, Strain/Indicator: TA97, Metabolic Activation: HAMSTER, LIVER, S-9, AROCLOR 1254 (10%), Method: PREINCUBATION): inactive; negative
- mutagenic call (Test System: AMES SALMONELLA TYPHIMURIUM, Strain/Indicator: TA97, Metabolic Activation: HAMSTER, LIVER, S-9, AROCLOR 1254 (30%), Method: PREINCUBATION): inactive; negative
- mutagenic call (Test System: AMES SALMONELLA TYPHIMURIUM, Strain/Indicator: TA97, Metabolic Activation: NONE, Method: PREINCUBATION): inactive; negative
- mutagenic call (Test System: AMES SALMONELLA TYPHIMURIUM, Strain/Indicator: TA97, Metabolic Activation: RAT, LIVER, S-9, AROCLOR 1254 (10%), Method: PREINCUBATION): inactive; negative
- mutagenic call (Test System: AMES SALMONELLA TYPHIMURIUM, Strain/Indicator: TA97, Metabolic Activation: RAT, LIVER, S-9, AROCLOR 1254 (30%), Method: PREINCUBATION): inactive; negative
- mutagenic call (Test System: AMES SALMONELLA TYPHIMURIUM, Strain/Indicator: TA98, Metabolic Activation: HAMSTER, LIVER, S-9, AROCLOR 1254 (10%), Method: PREINCUBATION): inactive; negative
- mutagenic call [1]: inactive; negative
- mutagenic call [2]: inactive; negative
- mutagenic call (Test System: AMES SALMONELLA TYPHIMURIUM, Strain/Indicator: TA98, Metabolic Activation: RAT, LIVER, S-9, AROCLOR 1254 (10%), Method: PREINCUBATION): inactive; negative
- mutagenic call [3]: inactive; negative
- mutagenic call (Test System: AMES SALMONELLA TYPHIMURIUM, Strain/Indicator: TA100, Metabolic Activation: HAMSTER, LIVER, S-9, AROCLOR 1254 (10%), Method: PREINCUBATION): inactive; negative
- mutagenic call [4]: inactive; negative
- mutagenic call [5]: inactive; negative
- mutagenic call (Test System: AMES SALMONELLA TYPHIMURIUM, Strain/Indicator: TA100, Metabolic Activation: RAT, LIVER, S-9, AROCLOR 1254 (10%), Method: PREINCUBATION): inactive; negative
- mutagenic call [6]: inactive; negative
- mutagenic call (Test System: AMES SALMONELLA TYPHIMURIUM, Strain/Indicator: TA1535, Metabolic Activation: HAMSTER, LIVER, S-9, AROCLOR 1254 (10%), Method: PREINCUBATION): inactive; negative
- mutagenic call (Test System: AMES SALMONELLA TYPHIMURIUM, Strain/Indicator: TA1535, Metabolic Activation: HAMSTER, LIVER, S-9, AROCLOR 1254 (30%), Method: PREINCUBATION): inactive; negative
- mutagenic call [7]: inactive; negative
- mutagenic call (Test System: AMES SALMONELLA TYPHIMURIUM, Strain/Indicator: TA1535, Metabolic Activation: RAT, LIVER, S-9, AROCLOR 1254 (10%), Method: PREINCUBATION): inactive; negative
- mutagenic call (Test System: AMES SALMONELLA TYPHIMURIUM, Strain/Indicator: TA1535, Metabolic Activation: RAT, LIVER, S-9, AROCLOR 1254 (30%), Method: PREINCUBATION): inactive; negative

Structure (SMILES): O=[N+]([O-])c1cccc2c([N+](=O)[O-])cccc12
- mutagenic call (End Point: IN VITRO CHROMOSOMAL ABERRATIONS, Test System: CHL CELLS, Metabolic Activation: RAT, LIVER, S-9, SODIUM PHENOBARBITAL AND 5,6-BENZOFLAVONE): active; positive (structural changes)
- mutagenic call [1]: active; positive
- mutagenic call [2]: active; positive
- mutagenic call (Test System: AMES SALMONELLA TYPHIMURIUM, Strain/Indicator: TA98, Metabolic Activation: RAT LIVER S-9, PHENOBARBITAL AND BETA-NAPHTHOFLAVONE, Method: PREINCUBATION): active; positive
- mutagenic call [3]: active; positive
- mutagenic call [4]: active; positive
- mutagenic call [5]: active; positive
- mutagenic call (Test System: AMES SALMONELLA TYPHIMURIUM, Strain/Indicator: TA100, Metabolic Activation: RAT LIVER S-9, PHENOBARBITAL AND BETA-NAPHTHOFLAVONE, Method: PREINCUBATION): active; positive
- mutagenic call [6]: active; positive
- mutagenic call [7]: inactive; negative
- mutagenic call (Test System: AMES SALMONELLA TYPHIMURIUM, Strain/Indicator: TA1535, Metabolic Activation: RAT LIVER S-9, PHENOBARBITAL AND BETA-NAPHTHOFLAVONE, Method: PREINCUBATION): inactive; negative
- mutagenic call (Test System: AMES SALMONELLA TYPHIMURIUM, Strain/Indicator: TA1537, Metabolic Activation: NONE, Method: PREINCUBATION): active; positive
- mutagenic call (Test System: AMES SALMONELLA TYPHIMURIUM, Strain/Indicator: TA1537, Metabolic Activation: RAT LIVER S-9, PHENOBARBITAL AND BETA-NAPHTHOFLAVONE, Method: PREINCUBATION): active; positive
- mutagenic call (Test System: AMES SALMONELLA TYPHIMURIUM, Strain/Indicator: TA1538, Metabolic Activation: NONE, Method: PREINCUBATION): active; positive
- mutagenic call (Test System: AMES SALMONELLA TYPHIMURIUM, Strain/Indicator: TA1538, Metabolic Activation: RAT LIVER S-9, PHENOBARBITAL AND BETA-NAPHTHOFLAVONE, Method: PREINCUBATION): active; positive
- mutagenic call (Test System: E.COLI, Strain/Indicator: WP2UVRA, Metabolic Activation: NONE, Method: PREINCUBATION): inactive; negative
- mutagenic call (Test System: E.COLI, Strain/Indicator: WP2UVRA, Metabolic Activation: RAT LIVER S-9, PHENOBARBITAL AND BETA-NAPHTHOFLAVONE, Method: PREINCUBATION): active; positive

Structure (SMILES): O=[N+]([O-])c1c(O)ccc2ccccc12
- mutagenic call [2]: active; positive

Structure (SMILES): CC1(C)O[C@H]1COc1c2ccoc2cc2oc(=O)ccc12
- mutagenic call (Test System: AMES SALMONELLA TYPHIMURIUM, Strain/Indicator: TA92, Metabolic Activation: NONE, Method: SPOT TEST): inactive; negative
- mutagenic call (Test System: AMES SALMONELLA TYPHIMURIUM, Strain/Indicator: TA92, Metabolic Activation: RAT, LIVER, S-9, AROCLOR 1254, Method: SPOT TEST): inactive; negative
- mutagenic call (Test System: AMES SALMONELLA TYPHIMURIUM, Strain/Indicator: TA94, Metabolic Activation: NONE, Method: SPOT TEST): inactive; negative
- mutagenic call (Test System: AMES SALMONELLA TYPHIMURIUM, Strain/Indicator: TA94, Metabolic Activation: RAT, LIVER, S-9, AROCLOR 1254, Method: SPOT TEST): inactive; negative
- mutagenic call (Test System: AMES SALMONELLA TYPHIMURIUM, Strain/Indicator: TA97, Metabolic Activation: NONE, Method: SPOT TEST): inactive; negative
- mutagenic call (Test System: AMES SALMONELLA TYPHIMURIUM, Strain/Indicator: TA97, Metabolic Activation: RAT, LIVER, S-9, AROCLOR 1254, Method: SPOT TEST): inactive; negative
- mutagenic call (Test System: AMES SALMONELLA TYPHIMURIUM, Strain/Indicator: TA98, Metabolic Activation: NONE, Method: SPOT TEST): inactive; negative
- mutagenic call (Test System: AMES SALMONELLA TYPHIMURIUM, Strain/Indicator: TA98, Metabolic Activation: RAT, LIVER, S-9, AROCLOR 1254, Method: SPOT TEST): inactive; negative
- mutagenic call (Test System: AMES SALMONELLA TYPHIMURIUM, Strain/Indicator: TA100, Metabolic Activation: NONE, Method: SPOT TEST): inactive; negative
- mutagenic call (Test System: AMES SALMONELLA TYPHIMURIUM, Strain/Indicator: TA100, Metabolic Activation: RAT, LIVER, S-9, AROCLOR 1254, Method: SPOT TEST): inactive; negative
- mutagenic call (Test System: AMES SALMONELLA TYPHIMURIUM, Strain/Indicator: TA102, Metabolic Activation: NONE, Method: SPOT TEST): inactive; negative
- mutagenic call (Test System: AMES SALMONELLA TYPHIMURIUM, Strain/Indicator: TA102, Metabolic Activation: RAT, LIVER, S-9, AROCLOR 1254, Method: SPOT TEST): inactive; negative

Structure (SMILES): O=C1c2ccc3ccccc3c2-c2c1ccc1ccccc21
- mutagenic call (Test System: AMES SALMONELLA TYPHIMURIUM, Strain/Indicator: TA98, Metabolic Activation: NONE, Method: STANDARD PLATE): inactive; negative
- mutagenic call (Test System: AMES SALMONELLA TYPHIMURIUM, Strain/Indicator: TA98, Metabolic Activation: RAT, LIVER, S-9, AROCLOR 1254, Method: STANDARD PLATE): active; positive
- mutagenic call (Test System: AMES SALMONELLA TYPHIMURIUM, Strain/Indicator: TA100, Metabolic Activation: NONE, Method: STANDARD PLATE): inactive; negative
- mutagenic call (Test System: AMES SALMONELLA TYPHIMURIUM, Strain/Indicator: TA100, Metabolic Activation: RAT, LIVER, S-9, AROCLOR 1254, Method: STANDARD PLATE): active; positive

Structure (SMILES): Nc1cc([N+](=O)[O-])ccc1CO
- mutagenic call [2]: active; positive
- mutagenic call (Test System: AMES SALMONELLA TYPHIMURIUM, Strain/Indicator: TA98, Metabolic Activation: RAT, LIVER, S-9, PHENOBARBITAL AND 5,6-BENZOFLAVONE, Method: PREINCUBATION): active; positive
- mutagenic call [5]: active; positive
- mutagenic call (Test System: AMES SALMONELLA TYPHIMURIUM, Strain/Indicator: TA100, Metabolic Activation: RAT, LIVER, S-9, PHENOBARBITAL AND 5,6-BENZOFLAVONE, Method: PREINCUBATION): active; positive
